According to US10231954B2, “Neurodegenerative therapies” (LYTIX BIOPHARMA AS, priority 2014, dated 2019):

Columns and labels:
SGK1 = target: T1, SGK1 (Homo sapiens, UniProt O00141); assay: Kinase profiling SGK1; format: biochemical; settings: 100 micromolar inhibitor concentration, 100 is no change; for remaining activity at 100 µM: read-out: residual kinase activity, SGK1
T1 sequence (O00141 1-431): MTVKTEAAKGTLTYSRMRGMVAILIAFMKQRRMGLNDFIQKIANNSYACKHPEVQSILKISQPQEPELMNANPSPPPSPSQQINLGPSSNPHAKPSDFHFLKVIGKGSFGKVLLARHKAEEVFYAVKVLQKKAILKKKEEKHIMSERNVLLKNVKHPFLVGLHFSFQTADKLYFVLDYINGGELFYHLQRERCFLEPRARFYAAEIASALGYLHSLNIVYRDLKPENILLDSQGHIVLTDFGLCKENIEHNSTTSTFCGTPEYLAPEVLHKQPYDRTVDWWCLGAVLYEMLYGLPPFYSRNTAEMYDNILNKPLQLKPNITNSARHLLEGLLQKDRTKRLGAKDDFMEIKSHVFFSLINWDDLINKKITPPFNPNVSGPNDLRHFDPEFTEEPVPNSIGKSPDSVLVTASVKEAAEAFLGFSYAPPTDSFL
Source text: (§1) Any value less that 25 is considered to be highly significant inhibition.

Src = Src (Homo sapiens, UniProt P12931); assay: Kinase profiling Src; format: biochemical; settings: 100 micromolar inhibitor concentration, 100 is no change; for remaining activity at 100 µM: read-out: residual kinase activity, Src
Source text: as §1

PDK1 = target: T2, PDK1 (Homo sapiens, UniProt O15530); assay: Kinase profiling PDK1; format: biochemical; settings: 100 micromolar inhibitor concentration, 100 is no change; for remaining activity at 100 µM: read-out: residual kinase activity, PDK1
T2 sequence (O15530 1-556): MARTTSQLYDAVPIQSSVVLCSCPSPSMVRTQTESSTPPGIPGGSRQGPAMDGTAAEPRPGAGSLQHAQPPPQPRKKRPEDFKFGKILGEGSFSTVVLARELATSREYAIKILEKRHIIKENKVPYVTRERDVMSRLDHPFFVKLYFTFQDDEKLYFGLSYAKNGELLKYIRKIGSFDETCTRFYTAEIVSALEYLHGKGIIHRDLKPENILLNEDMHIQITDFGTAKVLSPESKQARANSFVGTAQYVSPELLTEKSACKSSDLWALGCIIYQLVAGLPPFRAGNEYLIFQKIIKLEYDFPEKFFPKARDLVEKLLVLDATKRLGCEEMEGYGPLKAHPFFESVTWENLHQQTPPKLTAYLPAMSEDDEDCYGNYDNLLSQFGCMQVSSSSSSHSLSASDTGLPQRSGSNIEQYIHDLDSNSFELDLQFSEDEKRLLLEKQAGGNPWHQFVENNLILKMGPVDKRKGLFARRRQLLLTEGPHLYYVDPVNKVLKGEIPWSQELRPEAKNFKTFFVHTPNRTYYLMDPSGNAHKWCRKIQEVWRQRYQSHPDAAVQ
Source text: as §1

HER4 = HER4 (Homo sapiens, UniProt Q15303); assay: Kinase profiling HER4; format: biochemical; settings: 100 micromolar inhibitor concentration, 100 is no change; for remaining activity at 100 µM: read-out: residual kinase activity, HER4
Source text: as §1

EF2K = EF2K (Homo sapiens, UniProt O00418); assay: Kinase profiling EF2K; format: biochemical; settings: 100 micromolar inhibitor concentration, 100 is no change; for remaining activity at 100 µM: read-out: residual kinase activity, EF2K
Source text: as §1

MSK1 = MSK1 (Homo sapiens, UniProt O75582); assay: Kinase profiling MSK1; format: biochemical; settings: 100 micromolar inhibitor concentration, 100 is no change; for remaining activity at 100 µM: read-out: residual kinase activity, MSK1
Source text: as §1

SRPK1 = SRPK1 (Homo sapiens, UniProt Q96SB4); assay: Kinase profiling SRPK1; format: biochemical; settings: 100 micromolar inhibitor concentration, 100 is no change; for remaining activity at 100 µM: read-out: residual kinase activity, SRPK1
Source text: as §1

SYK = SYK (Homo sapiens, UniProt P43405); assay: Kinase profiling SYK; format: biochemical; settings: 100 micromolar inhibitor concentration, 100 is no change; for remaining activity at 100 µM: read-out: residual kinase activity, SYK
Source text: as §1

AMPK (hum) = assay: Kinase profiling AMPK (hum); format: biochemical, human; settings: 100 micromolar inhibitor concentration; 100 is no change
Source text: as §1

Lck = Lck (Homo sapiens, UniProt P06239); assay: Kinase profiling Lck; format: biochemical; settings: 100 micromolar inhibitor concentration, 100 is no change; for remaining activity at 100 µM: read-out: residual kinase activity, Lck
Source text: as §1

TBK1 = target: T3, TBK1 (Homo sapiens, UniProt Q9UHD2); assay: Kinase profiling TBK1; format: biochemical; settings: 100 micromolar inhibitor concentration, 100 is no change; for remaining activity at 100 µM: read-out: residual kinase activity, TBK1
T3 sequence (Q9UHD2 1-729): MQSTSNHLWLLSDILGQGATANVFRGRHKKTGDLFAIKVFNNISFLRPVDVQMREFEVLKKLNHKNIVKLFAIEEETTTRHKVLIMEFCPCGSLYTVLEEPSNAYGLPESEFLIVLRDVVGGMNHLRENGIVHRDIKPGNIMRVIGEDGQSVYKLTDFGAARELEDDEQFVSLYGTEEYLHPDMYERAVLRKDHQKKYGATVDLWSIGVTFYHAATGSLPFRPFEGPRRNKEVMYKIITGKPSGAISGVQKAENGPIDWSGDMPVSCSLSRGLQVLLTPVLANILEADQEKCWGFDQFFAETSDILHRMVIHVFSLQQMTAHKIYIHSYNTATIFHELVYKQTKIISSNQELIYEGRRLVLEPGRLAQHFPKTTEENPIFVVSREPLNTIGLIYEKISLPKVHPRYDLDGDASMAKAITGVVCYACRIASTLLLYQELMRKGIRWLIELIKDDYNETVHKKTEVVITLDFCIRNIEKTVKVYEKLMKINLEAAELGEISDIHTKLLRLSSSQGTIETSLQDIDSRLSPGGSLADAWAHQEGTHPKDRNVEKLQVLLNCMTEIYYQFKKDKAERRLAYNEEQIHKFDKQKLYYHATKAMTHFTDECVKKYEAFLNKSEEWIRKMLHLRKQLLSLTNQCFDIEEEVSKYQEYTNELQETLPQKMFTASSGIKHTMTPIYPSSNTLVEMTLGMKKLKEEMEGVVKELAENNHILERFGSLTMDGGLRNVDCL
Source text: as §1

MKK1 = MKK1 (Homo sapiens, UniProt Q02750); assay: Kinase profiling MKK1; format: biochemical; settings: 100 micromolar inhibitor concentration, 100 is no change; for remaining activity at 100 µM: read-out: residual kinase activity, MKK1
Source text: as §1

PKCz = target: T4, PKCz (Homo sapiens, UniProt Q05513); assay: Kinase profiling PKCz; format: biochemical; settings: 100 micromolar inhibitor concentration, 100 is no change; for remaining activity at 100 µM: read-out: residual kinase activity, PKCz
T4 sequence (Q05513 1-592): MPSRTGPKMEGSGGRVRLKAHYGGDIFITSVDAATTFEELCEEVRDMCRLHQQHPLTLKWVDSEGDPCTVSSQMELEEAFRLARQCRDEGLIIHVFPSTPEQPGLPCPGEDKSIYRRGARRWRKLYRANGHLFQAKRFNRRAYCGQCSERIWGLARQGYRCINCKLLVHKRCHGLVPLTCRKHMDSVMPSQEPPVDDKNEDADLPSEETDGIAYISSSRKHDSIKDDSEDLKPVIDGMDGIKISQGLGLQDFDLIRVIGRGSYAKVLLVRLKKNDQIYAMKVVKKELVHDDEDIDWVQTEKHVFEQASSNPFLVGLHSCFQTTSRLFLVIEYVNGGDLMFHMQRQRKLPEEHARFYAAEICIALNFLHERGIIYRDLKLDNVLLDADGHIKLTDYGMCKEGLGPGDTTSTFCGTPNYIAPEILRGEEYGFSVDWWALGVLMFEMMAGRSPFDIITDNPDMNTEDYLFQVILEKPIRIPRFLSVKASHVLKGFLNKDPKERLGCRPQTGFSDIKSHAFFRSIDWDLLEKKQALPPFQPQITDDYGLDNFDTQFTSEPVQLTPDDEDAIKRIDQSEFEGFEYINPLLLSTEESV
Source text: as §1

Chain of Lck (P06239 whole entry, species assumed): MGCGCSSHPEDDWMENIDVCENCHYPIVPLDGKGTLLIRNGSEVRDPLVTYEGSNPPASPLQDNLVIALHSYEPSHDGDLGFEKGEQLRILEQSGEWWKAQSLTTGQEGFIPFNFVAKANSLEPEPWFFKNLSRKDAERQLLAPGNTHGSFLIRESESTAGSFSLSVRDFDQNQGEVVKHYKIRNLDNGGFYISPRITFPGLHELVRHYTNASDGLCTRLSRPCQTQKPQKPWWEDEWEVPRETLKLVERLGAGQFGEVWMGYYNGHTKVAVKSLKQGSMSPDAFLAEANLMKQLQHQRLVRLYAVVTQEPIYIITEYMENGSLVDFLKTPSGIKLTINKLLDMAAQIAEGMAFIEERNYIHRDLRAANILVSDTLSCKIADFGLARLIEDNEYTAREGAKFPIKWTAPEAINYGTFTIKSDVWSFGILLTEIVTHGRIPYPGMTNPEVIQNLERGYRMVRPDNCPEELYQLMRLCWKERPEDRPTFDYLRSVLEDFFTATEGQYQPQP
Chain of Src (P12931 whole entry, species assumed): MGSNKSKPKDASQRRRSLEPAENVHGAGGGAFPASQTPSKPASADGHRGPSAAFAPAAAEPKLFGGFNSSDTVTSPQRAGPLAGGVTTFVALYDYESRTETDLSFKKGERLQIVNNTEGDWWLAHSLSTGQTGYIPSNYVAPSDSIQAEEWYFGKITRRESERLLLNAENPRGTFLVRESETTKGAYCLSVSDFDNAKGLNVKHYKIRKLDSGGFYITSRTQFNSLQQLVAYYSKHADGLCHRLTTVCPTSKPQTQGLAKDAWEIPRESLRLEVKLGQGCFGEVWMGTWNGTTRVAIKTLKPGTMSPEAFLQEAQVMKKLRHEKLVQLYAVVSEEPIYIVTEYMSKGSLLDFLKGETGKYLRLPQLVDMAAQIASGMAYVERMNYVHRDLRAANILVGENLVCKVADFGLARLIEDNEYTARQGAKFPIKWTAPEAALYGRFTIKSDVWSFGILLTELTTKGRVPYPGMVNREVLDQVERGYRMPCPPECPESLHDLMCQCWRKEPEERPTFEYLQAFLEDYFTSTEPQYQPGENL
Chain of HER4 (Q15303 26-1308, species assumed): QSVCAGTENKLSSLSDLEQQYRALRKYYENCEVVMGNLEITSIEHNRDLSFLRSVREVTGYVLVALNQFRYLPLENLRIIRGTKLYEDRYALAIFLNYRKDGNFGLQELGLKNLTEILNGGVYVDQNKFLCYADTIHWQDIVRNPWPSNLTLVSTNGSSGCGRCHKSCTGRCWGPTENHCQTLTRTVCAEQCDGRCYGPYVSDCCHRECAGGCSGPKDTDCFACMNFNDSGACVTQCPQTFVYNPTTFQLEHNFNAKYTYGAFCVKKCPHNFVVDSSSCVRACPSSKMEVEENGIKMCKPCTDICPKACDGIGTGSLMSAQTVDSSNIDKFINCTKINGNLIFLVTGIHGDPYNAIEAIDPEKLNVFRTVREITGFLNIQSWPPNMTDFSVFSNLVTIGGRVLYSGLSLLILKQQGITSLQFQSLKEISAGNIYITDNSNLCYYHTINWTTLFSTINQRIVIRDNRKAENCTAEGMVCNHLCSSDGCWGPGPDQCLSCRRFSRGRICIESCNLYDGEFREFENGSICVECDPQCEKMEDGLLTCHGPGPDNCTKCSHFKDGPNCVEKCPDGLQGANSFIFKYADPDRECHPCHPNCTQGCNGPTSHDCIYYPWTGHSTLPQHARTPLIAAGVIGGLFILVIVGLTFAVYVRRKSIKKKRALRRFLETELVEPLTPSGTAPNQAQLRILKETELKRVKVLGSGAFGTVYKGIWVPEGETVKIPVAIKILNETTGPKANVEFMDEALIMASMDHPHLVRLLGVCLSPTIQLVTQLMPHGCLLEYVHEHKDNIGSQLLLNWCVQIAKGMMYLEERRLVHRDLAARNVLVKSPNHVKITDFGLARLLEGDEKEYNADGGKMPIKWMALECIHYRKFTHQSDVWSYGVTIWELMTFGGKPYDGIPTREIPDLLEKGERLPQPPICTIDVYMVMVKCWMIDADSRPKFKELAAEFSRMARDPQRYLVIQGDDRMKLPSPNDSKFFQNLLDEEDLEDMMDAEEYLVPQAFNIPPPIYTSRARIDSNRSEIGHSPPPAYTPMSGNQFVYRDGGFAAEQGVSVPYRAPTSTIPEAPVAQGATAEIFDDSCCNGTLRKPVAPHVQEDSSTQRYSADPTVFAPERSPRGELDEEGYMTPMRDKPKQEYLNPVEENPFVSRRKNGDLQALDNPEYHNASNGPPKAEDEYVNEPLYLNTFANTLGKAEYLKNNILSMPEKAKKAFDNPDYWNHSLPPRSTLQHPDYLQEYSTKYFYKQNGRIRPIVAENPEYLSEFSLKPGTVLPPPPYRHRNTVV
Chain of MKK1 (Q02750 whole entry, species assumed): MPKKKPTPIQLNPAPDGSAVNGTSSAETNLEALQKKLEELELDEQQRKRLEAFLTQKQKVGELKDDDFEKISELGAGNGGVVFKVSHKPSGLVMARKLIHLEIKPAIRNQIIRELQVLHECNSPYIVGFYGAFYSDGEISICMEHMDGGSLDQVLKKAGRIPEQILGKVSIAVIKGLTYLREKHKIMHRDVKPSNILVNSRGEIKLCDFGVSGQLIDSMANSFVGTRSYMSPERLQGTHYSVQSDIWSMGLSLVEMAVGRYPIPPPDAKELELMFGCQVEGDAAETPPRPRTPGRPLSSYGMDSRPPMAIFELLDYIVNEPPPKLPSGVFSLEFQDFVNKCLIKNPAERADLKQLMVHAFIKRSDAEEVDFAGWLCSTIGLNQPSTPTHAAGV
Chain of MSK1 (O75582 whole entry, species assumed): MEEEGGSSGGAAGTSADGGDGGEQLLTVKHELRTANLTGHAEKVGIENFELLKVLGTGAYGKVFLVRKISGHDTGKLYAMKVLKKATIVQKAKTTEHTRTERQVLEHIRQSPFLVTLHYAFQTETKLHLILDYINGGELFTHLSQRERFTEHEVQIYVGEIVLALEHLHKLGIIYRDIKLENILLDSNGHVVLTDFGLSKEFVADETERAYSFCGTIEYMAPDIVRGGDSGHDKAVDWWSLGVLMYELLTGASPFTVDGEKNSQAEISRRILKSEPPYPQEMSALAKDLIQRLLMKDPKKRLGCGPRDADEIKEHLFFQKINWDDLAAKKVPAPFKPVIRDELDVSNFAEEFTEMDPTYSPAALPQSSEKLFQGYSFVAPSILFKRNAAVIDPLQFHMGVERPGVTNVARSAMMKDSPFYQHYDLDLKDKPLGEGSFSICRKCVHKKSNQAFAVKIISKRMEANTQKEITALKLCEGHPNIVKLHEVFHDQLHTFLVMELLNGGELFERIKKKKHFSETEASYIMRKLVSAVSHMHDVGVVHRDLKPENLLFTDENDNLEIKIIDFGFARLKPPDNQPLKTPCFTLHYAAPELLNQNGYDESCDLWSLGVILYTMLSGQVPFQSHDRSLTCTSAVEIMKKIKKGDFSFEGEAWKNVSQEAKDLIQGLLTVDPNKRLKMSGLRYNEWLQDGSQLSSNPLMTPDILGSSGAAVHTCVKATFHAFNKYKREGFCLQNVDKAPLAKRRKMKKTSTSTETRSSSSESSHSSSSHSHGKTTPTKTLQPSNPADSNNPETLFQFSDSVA
Chain of SRPK1 (Q96SB4 whole entry, species assumed): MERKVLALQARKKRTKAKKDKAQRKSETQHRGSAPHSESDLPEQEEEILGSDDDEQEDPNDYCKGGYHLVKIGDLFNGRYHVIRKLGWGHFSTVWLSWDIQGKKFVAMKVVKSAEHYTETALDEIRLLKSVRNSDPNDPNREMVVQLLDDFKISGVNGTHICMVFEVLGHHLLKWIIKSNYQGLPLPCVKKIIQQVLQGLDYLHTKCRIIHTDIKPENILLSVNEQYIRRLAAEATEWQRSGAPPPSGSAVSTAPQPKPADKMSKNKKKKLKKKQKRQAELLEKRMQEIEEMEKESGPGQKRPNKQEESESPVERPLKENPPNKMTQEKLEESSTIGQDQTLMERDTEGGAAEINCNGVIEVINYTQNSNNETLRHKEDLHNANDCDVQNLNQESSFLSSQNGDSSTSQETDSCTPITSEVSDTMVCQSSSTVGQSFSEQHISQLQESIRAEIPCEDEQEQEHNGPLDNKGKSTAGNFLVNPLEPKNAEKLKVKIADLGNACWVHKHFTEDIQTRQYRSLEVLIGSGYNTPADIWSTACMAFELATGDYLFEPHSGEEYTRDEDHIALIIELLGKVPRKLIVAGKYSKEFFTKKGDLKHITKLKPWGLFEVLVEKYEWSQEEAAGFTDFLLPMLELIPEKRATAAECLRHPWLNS

Row | Compound | remaining activity at 100 µM (SGK1) [%] | remaining activity at 100 µM (Src) [%] | remaining activity at 100 µM (PDK1) [%] | remaining activity at 100 µM (HER4) [%] | remaining activity at 100 µM (EF2K) [%] | remaining activity at 100 µM (MSK1) [%] | remaining activity at 100 µM (SRPK1) [%] | remaining activity at 100 µM (SYK) [%] | residual kinase activity, AMPK (hum) (AMPK (hum)) | remaining activity at 100 µM (Lck) [%] | remaining activity at 100 µM (TBK1) [%] | remaining activity at 100 µM (MKK1) [%] | remaining activity at 100 µM (PKCz) [%] | further results
1 | COc1ccc2sc(NC(C)=O)nc2c1 [Compound 03-21] | 82 | 86 | 115 | 94 | 105 | 93 | 84 | 72 | 81 | 109 | 81 | 64 | 85 | –
2 | CC(=O)Nc1nc2ccc(C#N)cc2s1 [Compound 01-94] | 40 | 94 | 97 | 90 | 98 | 81 | 47 | 86 | 40 | 168 | 41 | 34 | 80 | –
3 | O=C(Nc1nc2cc(O)ccc2s1)c1ccncc1 [Compound 03-11] | – | – | – | – | – | – | – | – | 98 | – | – | – | – | residual kinase activity, SGK1 (SGK1): 84; residual kinase activity, Src (Src): 79; residual kinase activity, PDK1 (PDK1): 100; residual kinase activity, HER4 (HER4): 96; residual kinase activity, EF2K (EF2K): 79; residual kinase activity, MSK1 (MSK1): 97; residual kinase activity, SRPK1 (SRPK1): 66; residual kinase activity, SYK (SYK): 75; residual kinase activity, Lck (Lck): 93; residual kinase activity, TBK1 (TBK1): 80; residual kinase activity, MKK1 (MKK1): 88; residual kinase activity, PKCz (PKCz): 86
